Test results: ChEMBL document CHEMBL5661967, “Antitumor activity of HKI-272, an orally active, irreversible inhibitor of the HER-2 tyrosine kinase” (Cancer Res, 2004)
Calls of active or inactive are those of the source. The rule behind the calls is not given here.

Legend:
BT-474 [1] = assay: Cell cycle arrest in human BT-474 cells assessed as reduction in accumulation of cells at S phase measured after 12 to 16 hrs by BrdUrd uptake assay; format: functional, cell-based
BT-474 [2] = assay: Antitumor activity against human BT-474 cells xenografted in athymic nude mouse assessed as tumor growth inhibition at 40 mg/kg, po administered daily for 20 days via gavage and measured on day 21 relative to control; format: functional; conditions: BT-474, 504 h, time 21 day, read-out: TGI
Homo sapiens = species: Homo sapiens; assay: Selectivity ratio of IC50 for recombinant Src (unknown origin) to IC50 for recombinant N-terminal His6-tagged HER2 cytoplasmic domain (676 to 1255 residues)(unknown origin) expressed in baculovirus infected Sf9 insect cells
NIH3T3 [3] = assay: Antitumor activity against mouse 3T3 cells transfected with HER-2 oncogene implanted in athymic nude mouse assessed as tumor growth inhibition at 40 mg/kg, po administered daily for 10 days via gavage and measured on day 14 relative to control; format: functional; conditions: NIH3T3, 336 h, time 14 day, read-out: TGI
BT-474 [4] = assay: Cell cycle arrest in human BT-474 cells assessed as increase in accumulation of cells at sub-G1 phase at >2 nM measured after 12 to 16 hrs by propidium iodide staining based flow cytometry; format: functional; conditions: time 12-16 hrs
[5] = target: T1, Receptor tyrosine-protein kinase erbB-2 (Homo sapiens, UniProt P04626); assay: Inhibition of [14C]HKI-272 binding to recombinant N-terminal His6-tagged HER2 cytoplasmic domain (676 to 1255 residues)(unknown origin) expressed in baculovirus infected Sf9 insect cells at 5 uM measured after 15 mins by fluorography
[6] = target: RAC-alpha serine/threonine-protein kinase (Homo sapiens, UniProt P31749); assay: Inhibition of recombinant AKT (unknown origin) using peptide as substrate
[7] = target: Epidermal growth factor receptor (Homo sapiens, UniProt P00533); assay: Inhibition of EGF-induced EGFR phosphorylation in human A-431 cells at 1 uM incubated for 3 hrs by Western blot analysis relative to control; format: cell-based
BT-474 [8] = assay: Antiproliferative activity against human BT-474 cells measured after 6 days by sulforhodamine B assay; format: functional, cell-based; conditions: BT-474, 144 h
A-431 = assay: Antitumor activity against human A-431 cells xenografted in athymic nude mouse assessed as tumor growth inhibition at 20 mg/kg, po administered daily for 10 days via gavage and measured on day 15 relative to control; format: functional; conditions: A-431, 360 h, time 15 day, read-out: TGI
BT-474 [9] = assay: Cell cycle arrest in human BT-474 cells assessed as accumulation of cells at G0-G1 phase at 0.2 nM measured after 12 to 16 hrs by propidium iodide staining based flow cytometry (reference value: 61%); format: functional; conditions: time 12-16 hrs
[10] = Toxicity in mouse 3T3 cells transfected with HER-2 oncogene implanted athymic nude mouse assessed as body weight loss at 20 to 80 mg/kg, po administered daily for 10 days; format: organism-based, NIH3T3; conditions: in vivo, 240 h, dose 20-80 mg/kg, time 10 day
[11] = target: T1, Receptor tyrosine-protein kinase erbB-2; assay: Inhibition of HER2 autophosphorylation in human BT-474 cells at 1 uM measured after 3 hrs by Western blot analysis relative to control; format: cell-based
BT-474 [12] = assay: Cell cycle arrest in human BT-474 cells assessed as accumulation of cells at G2/M phase at 0.2 nM measured after 12 to 16 hrs by propidium iodide staining based flow cytometry (reference value: 11%); format: functional; conditions: time 12-16 hrs
NIH3T3 [13] = assay: Antitumor activity against mouse 3T3 cells transfected with HER-2 oncogene implanted in po dosed athymic nude mouse assessed as tumor growth inhibition administered daily for 10 days via gavage and measured on day 21; format: functional, organism-based; conditions: dose 20-80 mg/kg, time 21.0 day

T1 sequence (P04626 whole entry, the tested form may be a part): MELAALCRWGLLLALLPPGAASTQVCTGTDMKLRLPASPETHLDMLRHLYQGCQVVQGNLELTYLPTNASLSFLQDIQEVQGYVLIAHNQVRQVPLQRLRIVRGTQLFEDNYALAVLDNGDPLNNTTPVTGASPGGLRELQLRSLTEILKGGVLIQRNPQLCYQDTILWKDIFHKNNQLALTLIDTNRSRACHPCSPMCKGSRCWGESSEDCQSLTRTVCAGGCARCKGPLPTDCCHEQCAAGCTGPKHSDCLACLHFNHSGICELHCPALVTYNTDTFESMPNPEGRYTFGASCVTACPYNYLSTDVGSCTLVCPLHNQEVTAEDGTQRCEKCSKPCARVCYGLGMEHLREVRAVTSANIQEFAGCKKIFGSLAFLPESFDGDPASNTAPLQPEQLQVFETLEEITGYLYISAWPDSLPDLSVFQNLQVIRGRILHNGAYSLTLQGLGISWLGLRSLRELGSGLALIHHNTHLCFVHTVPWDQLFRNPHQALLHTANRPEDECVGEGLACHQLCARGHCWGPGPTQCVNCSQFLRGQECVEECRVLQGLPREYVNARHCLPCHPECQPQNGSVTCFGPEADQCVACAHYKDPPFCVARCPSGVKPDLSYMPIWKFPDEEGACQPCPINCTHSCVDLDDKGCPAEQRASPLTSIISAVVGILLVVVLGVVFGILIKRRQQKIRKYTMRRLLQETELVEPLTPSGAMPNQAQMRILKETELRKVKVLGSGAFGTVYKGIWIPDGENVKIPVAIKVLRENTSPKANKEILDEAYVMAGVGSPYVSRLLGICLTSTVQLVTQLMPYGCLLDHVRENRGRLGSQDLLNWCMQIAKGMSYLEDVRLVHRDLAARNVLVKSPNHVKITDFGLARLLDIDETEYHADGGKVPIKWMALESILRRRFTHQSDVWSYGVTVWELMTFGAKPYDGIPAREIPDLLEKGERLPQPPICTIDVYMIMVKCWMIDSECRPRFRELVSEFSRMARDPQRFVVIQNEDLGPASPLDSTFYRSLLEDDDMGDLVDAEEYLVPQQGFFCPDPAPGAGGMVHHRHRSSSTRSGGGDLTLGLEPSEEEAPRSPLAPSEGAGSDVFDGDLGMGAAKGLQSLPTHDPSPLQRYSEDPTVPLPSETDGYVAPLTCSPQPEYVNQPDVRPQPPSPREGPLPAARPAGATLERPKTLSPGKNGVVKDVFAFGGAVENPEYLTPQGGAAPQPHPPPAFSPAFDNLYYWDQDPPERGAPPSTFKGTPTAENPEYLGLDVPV
Chain of Epidermal growth factor receptor (P00533 whole entry): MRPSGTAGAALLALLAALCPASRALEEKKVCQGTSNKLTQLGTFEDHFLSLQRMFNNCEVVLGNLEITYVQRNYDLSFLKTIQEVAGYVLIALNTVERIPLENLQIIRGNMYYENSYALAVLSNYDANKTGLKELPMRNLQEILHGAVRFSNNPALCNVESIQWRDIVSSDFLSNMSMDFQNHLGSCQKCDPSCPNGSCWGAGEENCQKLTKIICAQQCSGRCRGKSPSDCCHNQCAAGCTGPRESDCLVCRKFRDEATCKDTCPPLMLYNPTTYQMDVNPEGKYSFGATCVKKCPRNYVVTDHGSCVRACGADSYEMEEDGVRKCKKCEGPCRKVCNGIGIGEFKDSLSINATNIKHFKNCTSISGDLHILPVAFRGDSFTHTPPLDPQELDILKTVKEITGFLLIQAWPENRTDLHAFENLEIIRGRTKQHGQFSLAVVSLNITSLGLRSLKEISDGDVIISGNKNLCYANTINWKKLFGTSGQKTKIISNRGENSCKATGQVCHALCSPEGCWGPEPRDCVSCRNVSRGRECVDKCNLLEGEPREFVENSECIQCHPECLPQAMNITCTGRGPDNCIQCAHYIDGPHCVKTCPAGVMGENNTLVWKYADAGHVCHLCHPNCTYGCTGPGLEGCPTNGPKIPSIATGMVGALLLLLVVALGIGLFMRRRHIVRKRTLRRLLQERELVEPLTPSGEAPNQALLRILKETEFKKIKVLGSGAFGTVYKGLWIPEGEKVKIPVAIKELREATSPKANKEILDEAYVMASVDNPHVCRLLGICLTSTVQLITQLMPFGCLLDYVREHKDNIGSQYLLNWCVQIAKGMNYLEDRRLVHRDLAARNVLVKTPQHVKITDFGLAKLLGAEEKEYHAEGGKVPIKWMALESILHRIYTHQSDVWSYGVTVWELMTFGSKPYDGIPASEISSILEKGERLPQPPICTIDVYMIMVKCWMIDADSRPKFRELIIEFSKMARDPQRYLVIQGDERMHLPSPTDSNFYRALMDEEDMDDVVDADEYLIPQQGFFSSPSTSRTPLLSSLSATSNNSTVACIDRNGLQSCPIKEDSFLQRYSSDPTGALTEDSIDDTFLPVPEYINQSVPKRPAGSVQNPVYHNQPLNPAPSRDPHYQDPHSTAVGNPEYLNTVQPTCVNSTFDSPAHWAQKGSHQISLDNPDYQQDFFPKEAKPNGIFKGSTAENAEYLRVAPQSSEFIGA
Chain of RAC-alpha serine/threonine-protein kinase (P31749 whole entry): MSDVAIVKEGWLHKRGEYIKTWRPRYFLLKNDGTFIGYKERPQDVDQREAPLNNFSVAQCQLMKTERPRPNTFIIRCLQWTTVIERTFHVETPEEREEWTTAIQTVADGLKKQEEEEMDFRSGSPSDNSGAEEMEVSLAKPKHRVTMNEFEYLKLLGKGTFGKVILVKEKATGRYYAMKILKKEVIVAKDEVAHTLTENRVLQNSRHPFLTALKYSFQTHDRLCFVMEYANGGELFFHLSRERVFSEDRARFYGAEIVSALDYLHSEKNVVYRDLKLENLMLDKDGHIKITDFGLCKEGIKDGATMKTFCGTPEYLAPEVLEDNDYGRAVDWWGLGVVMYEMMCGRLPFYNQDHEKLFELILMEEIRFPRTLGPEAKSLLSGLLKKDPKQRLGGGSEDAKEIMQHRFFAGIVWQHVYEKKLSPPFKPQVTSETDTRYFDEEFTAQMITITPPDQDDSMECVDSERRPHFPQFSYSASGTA

Structure (SMILES): COc1cc2ncc(C#N)c(Nc3ccc(OCc4ccccn4)c(Cl)c3)c2cc1NC(=O)/C=C/CN(C)C
- IC50 (BT-474 [1]): 2 nM
- inhibition in vivo at 40 mg/kg (BT-474 [2]): 88%
- Ratio IC50 (Homo sapiens): 24
- inhibition in vivo at 40 mg/kg (NIH3T3 [3]): 98%
- Activity (BT-474 [4]): Active
- inhibition [5]: Active
- IC50 [6]: > 20000 nM
- inhibition [7]: > 99%
- IC50 (BT-474 [8]): 2 nM
- inhibition in vivo at 20 mg/kg (A-431): 44%
- Activity (BT-474 [9]): 63%
- Activity [10]: Non-Toxic
- inhibition [11]: 98%
- Activity (BT-474 [12]): 13%
- TGI (NIH3T3 [13]): Dose-Dependent Effect
